The subject of one data set is gastric peristalsis. The experiment in a line: Testing of the Gastric Peristalsis (gastric pressure waves, narcotized rats). The conditions noted are these: before vs after administration; for inhibition in vivo at 20 mg/kg: Rattus norvegicus, ip, read-out: Frequency Decrease in %; for Factor of the Increase in Amplitude: i.p., 20 mg/kg. Type of data set: in vivo, rat. The source says:
To determine the functioning of the gastric peristalsis, rats weighing about 200 g are narcotized by means of ketamine hydrochloride and xylazine. A catheter is introduced into the Vena jugularis of the narcotized rats and a tracheal catheter into the trachea. A stomach probe is inserted into their stomach and tied thereto. The probe is connected via a three-way cock with a Statham pressure imparting device (P 23 DB). The stomach is sealed off by a ligature at the pylorus and at the cardia. The stomach is filled with 3 ml of an 0.9% aqueous sodium chloride solution. The pressure waves produced by the stomach are continuously registered by a suitable recording device such as by a Watanabe Multicorder (MC 641). In order to determine the effect of the compounds to be tested, they are dissolved in physiological sodium chloride solution or are suspended in Tylose MH 50 solution. Said solutions or suspensions are administered intraperitoneally to the rats in a dose of 20 mg/kg. The amplitudes and frequencies of the pressure wave-like movements of the stomach as they occur before and after administration of the compound to be tested, are compared.
This effect in combination with a pronounced decrease in the frequencies of varying magnitude results in an improved food passage through the stomach.

Data set [1] can be described thus: Determination of the Acute Toxicity (acute seven-day toxicity). Conditions: mouse, in vivo, ip, fasting white NMRI mouse, single i.p. dose. On the procedure:
The acute seven-day toxicity is determined by intraperitoneal administration of a single dose of the respective compound to a fasting white NMRI mouse. The LD50 -values are calculated via electronic data processing by a probit analysis as described in the book "Grundbegriffe der Biometrie" (Basic Biometrical Definitions) by L. Cavalli-Sforza, page 153 et seq., published by Gustav Fischer Verlag, Stuttgart, 1964.

SMILES strings stand for the structures.

For the compound `CNC1COc2ccccc2C(=O)C1` (racemic) [Compound 1, rac.-3-methylamino-3,4-dihydro-1-benzoxepin-5(2H)-one], in the data set with gastric peristalsis, the inhibition in vivo at 20 mg/kg stood at 8% and the “Factor of the Increase in Amplitude” value is given as 1.6. For the same compound, the LD50 at 168 h in data set [1] is 137 mg/kg.
In the same order, the values of `CC(C)NC1COc2ccccc2C(=O)C1` (racemic) [Compound 2, rac.-3-isopropylamino-3,4-dihydro-1-benzoxepin-5(2H)-one] are 16%, 2.6 and 183 mg/kg.
The like results for `O=C1CC(NCc2ccccc2)COc2ccccc21` (racemic) [Compound 3, rac.-3-benzylamino-3,4-dihydro-1-benzoxepin-5(2H)-one] were, in that order, 7%, 3.6 and 253 mg/kg.
The like results for `CN(C)CCCNC1COc2ccccc2C(=O)C1` (racemic) [Compound 4, rac.-3-(γ-dimethylamino-propylamino)-3,4-dihydro-1-benzoxepin-5(2H)-one] were, in that order, 25%, 3.7 and 272 mg/kg.
As for `CN(C)C1COc2ccccc2C(=O)C1` (racemic) [Compound 5, rac.-3-dimethylamino-3,4-dihydro-1-benzoxepin-5(2H)-one], in the data set on gastric peristalsis, the inhibition in vivo at 20 mg/kg worked out at 12% and the “Factor of the Increase in Amplitude” value is 1.3. The LD50 at 168 h in data set [1] came out at 285 mg/kg.
The like results for `CN(C)CCCNC1COc2ccc(Cl)cc2C(=O)C1` (racemic) [Compound 6, rac.-3-(γ-dimethylamino-propylamino)-7-chloro-3,4-dihydro-1-benzoxepin-5(2H)-one] were, in that order, 29%, 3.4 and 296 mg/kg.
With `CCCCNC1COc2ccccc2C(=O)C1` (racemic) [Compound 7, rac.-3-(n-butylamino)-3,4-dihydro-1-benzoxepin-5(2H)-one], in the data set with gastric peristalsis, the inhibition in vivo at 20 mg/kg was found to be 28% and the “Factor of the Increase in Amplitude” value was 6.6.
In the case of `CN[C@@H]1COc2ccccc2[C@H](O)C1` (relative stereo) [A], the LD50 at 168 h in data set [1] amounted to 342 mg/kg.
On to `CC(C)N[C@@H]1COc2ccccc2[C@H](O)C1` (relative stereo) [C], for which the inhibition in vivo at 20 mg/kg in the data set on gastric peristalsis turned out to be 13%.
Take `O[C@@H]1C[C@H](NCc2ccccc2)COc2ccccc21` (relative stereo) [D]: in the data set with gastric peristalsis, the inhibition in vivo at 20 mg/kg amounted to 21%. The compound also yielded an LD50 at 168 h in data set [1] of 92 mg/kg.
As to `CN(C)CCCN[C@@H]1COc2ccccc2[C@H](O)C1` (relative stereo) [E], the inhibition in vivo at 20 mg/kg with gastric peristalsis amounted to 32%. In data set [1], this compound registered a 50% lethal dose (LD50) at 168 h of 664 mg/kg.
In data set [1], `CCN(CC)[C@@H]1COc2ccccc2[C@H](O)C1` (relative stereo) [F] had an LD50 at 168 h of 183 mg/kg.
In the case of `O[C@@H]1C[C@H](N2CCCC2)COc2ccccc21` (relative stereo) [K], the inhibition in vivo at 20 mg/kg with gastric peristalsis amounted to 10%.
On the same count and under the same terms, then `CN(C)[C@@H]1COc2ccccc2[C@H](O)C1` (relative stereo) [O], with 7%.

In general, LD50 refers to the dose at which mortality reaches 50%. High values mean lower toxicity, low ones greater toxicity.

(Values after patent publication US4279904A, “3-Amino-1-benzoxepine derivatives and their salts and pharmaceutical compositions thereof” (Kali-Chemie Pharma GmbH, priority 1979, dated 1981).)
